Results reported in PubChem BioAssay AID720714 (Broad Institute, 2013).
Activity calls are given as the source filed them. No rule for the calls is given here.

Key:
[1] = HepG2 cell cytotoxicity, dose response, cytotoxicity control, plate reader, dry powder, set 3 (AID 720714); settings: HepG2 cytotoxicity, plate reader; at 26 µM (top of the series)
[2] = tested on: HepG2 cytotoxicity, plate reader; assay: as above

Structure (SMILES)	activity change, negative = cytotoxicity [1]	AC50 [2] [µM]
CCOC(=O)C1CCN(C(=O)c2ccc(OCC(=O)Nc3cccc(C(F)(F)F)c3)c(OC)c2)CC1	11.7% (inactive)	
Fc1ccc(-n2nnnc2-c2cnc(-c3cccs3)nc2C(F)(F)F)cc1	23.6% (inactive)	
CC(C)(C)NC(=O)CSc1nc2ccc(NC(=O)CSc3nnnn3Cc3ccccc3)cc2s1		15.5
Cc1cc2c(cc(C(=O)N3CCC(C(=O)NC4CCCC4)CC3)n2Cc2c(F)cccc2Cl)o1	132% (inactive)	
COc1cc2ncnc(N[C@H](C)c3ccccc3)c2cc1OC	45.6% (inactive)	
Cc1cc(N2CCCC2=O)cc(C)c1S(=O)(=O)NCCOc1ccc(C(C)(C)C)cc1	15.4% (inactive)	
CCCOc1ccccc1C1CC(=O)Nc2cc3c(cc21)OCO3 (stereo unspecified)	73.2% (inactive)	
CC(=O)N1CCN(C(=O)CCc2cc(C(C)(C)C)c(O)c(C(C)(C)C)c2)CC1	84.8% (inactive)	
COc1ccc2c(c1)c(CC(=O)Nc1cc(C)ccc1C)c(C)n2C(=O)c1ccc(Cl)cc1	8.4% (inactive)	
CN(CC(=O)Nc1cccc(S(=O)(=O)N2CCOCC2)c1)CC(=O)Nc1ccc(Cl)c(C(F)(F)F)c1	-15.1% (inactive)	
COc1ccc(NC(=O)c2nc(S(=O)(=O)Cc3cccc(C)c3)ncc2Cl)c(OC)c1	-19.7% (inactive)	
COc1cc(CN2CCc3ccccc3C2)ccc1O		21.6
COc1ccc(NS(=O)(=O)c2ccc(C(=O)N3CCCCCC3)cc2)cc1	41.5% (inactive)	
Cc1ccc2cc(CN(CC3CCCO3)C(=O)NC3CCCCC3)c(=O)[nH]c2c1C (stereo unspecified)	64.3% (inactive)	
O=C1CSc2ccc(C(=O)Nc3cccc(S(=O)(=O)Nc4ccc(Br)cc4)c3)cc2N1	-35.1% (inactive)	
CN(C)S(=O)(=O)c1cccc(NC(=O)c2cccc(S(=O)(=O)N3CCc4ccccc43)c2)c1	10.3% (inactive)	
CC(=O)Nc1cccc(NC(=O)CSc2ncc(-c3ccc(Cl)cc3)n2Cc2ccco2)c1	-23% (inactive)	
O=c1c2ccccc2nc2n1C(CSCc1ccc(Cl)cc1Cl)CS2 (stereo unspecified)	-17.2% (inactive)	
CCCc1nnc(NC(=O)c2nc(S(=O)(=O)Cc3ccc(C)cc3)ncc2Cl)s1	26.2% (inactive)	
CC(C)[C@H](NC(=O)OC(C)(C)C)c1nnc(S(=O)(=O)Cc2c(F)cccc2Cl)o1	-90.6% (inactive)	
Nc1nonc1C(=O)NCCNCc1cc(Br)ccc1OCc1ccc(F)cc1	-54.9% (inactive)	
COc1ccc(Nc2nc(N3CCCCC3)c3ccccc3n2)cc1	-24.8% (inactive)	
COc1ccccc1N1CCN(c2ncc(C(=O)N3CCN(c4cccc(Cl)c4)CC3)c3ccccc23)CC1	111% (inactive)	
O=C(c1nnsc1S(=O)c1ccc(Cl)cc1)N1CCOCC1 (stereo unspecified)		14.5
CN(C(=O)COc1ccccc1C(=O)NCCOc1ccccc1)c1ccccc1	-26.1% (inactive)	
CN(C)c1nc(-c2ccccn2)nnc1-c1ccccc1		26.5
